We go through 8 molecules from patent publication US6703347B2, “Isothiazole derivatives and their use as pesticides” (Syngenta Limited, priority 2000, dated 2004).

The mortality is the percentage killed.

Data set [1] relates to Puccinia recondita (PUCCRT). The data set can be described thus: foliar fungicide test on wheat (Example 18). The data set is classed as in vivo. The settings on record: 100 ppm foliar spray on wheat; inoculated one day after chemical application (Prot).
Data set [2] relates to peach potato aphids (Myzus persicae). The experiment in a line: whole plant or invertebrate. Particulars: 72 h, read-out: mortality (score) Mp.
Protocol: (§1) This Example illustrates the pesticidal/insecticidal properties of compounds of formula (I). The activities of individual compounds of formula (I) were determined using a variety of pests. The pests were treated with a liquid composition containing 500 parts per million (ppm) by weight of a compound of formula (I). Each composition was made by dissolving the compound in an acetone and ethanol (50:50 by volume) mixture and diluting the solution with water containing 0.05% by volume of a wetting agent, SYNPERONIC NP8, until the liquid composition contained the required concentration of the compound.
(§2) The test procedure adopted with regard to each pest was essentially the same and comprised supporting a number of the pests on a medium, which was usually a substrate, a host plant or a foodstuff on which the pests feed, and treating either or both the medium and the pests with a composition. Pest mortality was assessed usually between two and five days after treatment.
(§3) In each test against peach potato aphids (Myzus persicae), Chinese cabbage leaves were infested with aphids, the infested leaves were sprayed with a test composition and pest mortality was assessed after three days.
Data set [3] concerns Pyricularia oryzae (PYRIOR). It is filed as in vivo. Particulars: 100 ppm foliar spray on rice; inoculated one day after chemical application (Prot).
Data set [4] has as its system Uncinula necator (UNCINE). The data set can be described thus: foliar fungicide test on vines (Example 18). It is filed as in vivo. The settings on record: 100 ppm foliar spray on vines; inoculated one day before chemical application (Erad).
Data set [5] relates to corn root worm (Diabrotica balteata). The data set can be described thus: pesticidal test against corn root worm. Particulars: liquid composition containing 500 ppm by weight of compound.
The subject of data set [6] is fruit flies (Drosophila melanogaster). The experiment in a line: pesticidal test against fruit flies. Particulars: liquid composition containing 500 ppm by weight of compound.
Protocol: (§4) The activities of individual compounds of formula (I) were determined using a variety of pests. The pests were treated with a liquid composition containing 500 parts per million (ppm) by weight of a compound of formula (I). Each composition was made by dissolving the compound in an acetone and ethanol (50:50 by volume) mixture and diluting the solution with water containing 0.05% by volume of a wetting agent, SYNPERONIC NP8, until the liquid composition contained the required concentration of the compound.
as §2
(§5) Similar tests were conducted against, independently, two-spotted spider mites (Tetranychus urticae), fruit flies (Drosophila melanogaster), tobacco budworms (Heliothis virescens), diamond back moth (Plutella xylostella) and corn root worm (Diabrotica balteata).
The subject of data set [7] is tobacco budworms (Heliothis virescens). The experiment in a line: pesticidal test against tobacco budworms. Particulars: liquid composition containing 500 ppm by weight of compound.
In data set [8] the test system is diamond back moth (Plutella xylostella). The data set can be described thus: pesticidal test against diamond back moth. The settings on record: liquid composition containing 500 ppm by weight of compound.
Data set [9] has as its system Phytophthora infestans lycopersici (PHYTIN). It is filed as in vivo. The settings on record: 100 ppm foliar spray on tomatoes; inoculated one day after chemical application (Prot).
The test system of data set [10] is Plasmopara viticola (PLASVI). The data set can be described thus: foliar fungicide test on vines (Example 19). It is filed as in vivo. The settings on record: 100 ppm foliar (Prot) application on vines; inoculated 6 hours or one day after application.
Data set [11] has as its system Blumeria graminis f.sp. tritici (ERYSGT). The experiment in a line: foliar fungicide test on wheat (Example 19). It is filed as in vivo. Particulars: 100 ppm foliar (Prot) application on wheat; inoculated 6 hours or one day after application.
The test system of data set [12] is peach potato aphids (Myzus persicae). The settings on record: 500 ppm by weight; infested Chinese cabbage leaves sprayed; mortality assessed after three days.
Protocol: as §1, §2, §3
Data set [13] concerns two-spotted spider mites (Tetranychus urticae). The settings on record: liquid composition containing 500 ppm by weight of compound.
Protocol: as §4, §2, §5

With `Cc1nsc(NC(=O)C(C)c2ccc3oc(CC(C)(C)C)nc3c2)c1Cl` (centres unmarked) [Table 1 Compound 7, N-(4-chloro-3-methylisothiazol-5-yl)-2-[2-(2,2-dimethylpropyl)benzoxazol-5-yl]propionamide], the “PUCCRT Prot, PRCO (Percentage Reduction from Control)” value in [1] came to 85. Also, the mortality at 500 ppm in data set [2] was in the range of 40 to 79%. Further, the “PYRIOR Prot, PRCO (Percentage Reduction from Control)” value in data set [3] came to 24. In addition, the “UNCINE Erad, PRCO (Percentage Reduction from Control)” value in [4] is reported as 100.
With `Cc1nsc(NC(=O)C(C)c2ccc3oc(CC(F)(F)F)nc3c2)c1Cl` (centres unmarked) [Table 1 Compound 8, N-(4-chloro-3-methylisothiazol-5-yl)-2-[2-(2,2,2-trifluoroethyl)benzoxazol-5-yl]propionamide], the “mortality (score) Db” value in data set [5] is 9 (9 indicates 80-100% mortality). In addition, the mortality at 500 ppm in data set [2] is 40 to 79%. Further, the “mortality (score) Dm” value in [6] is 0 (represents less than 40% mortality). Besides, the “mortality (score) Hv” value in data set [7] was 9 (9 indicates 80-100% mortality). Besides, the “mortality (score) Px” value in data set [8] is listed as 9 (9 indicates 80-100% mortality).
On to `Cc1nsc(NC(=O)C(c2ccc3oc(CC(C)(C)C)nc3c2)C(C)C)c1Cl` (centres unmarked) [Table 3 Compound 7], for which the “PUCCRT Prot, PRCO (Percentage Reduction from Control)” value in [1] is reported as 19. For the same molecule, the “PHYTIN Prot, PRCO (Percentage Reduction from Control)” value in [9] amounted to 20. In [4], the “UNCINE Erad, PRCO (Percentage Reduction from Control)” value is 91.
Take `Cc1nsc(NC(=O)C(C)(F)c2ccc3oc(CC(C)(C)C)nc3c2)c1Cl` (centres unmarked) [Table 6 Compound 7, N-(4-chloro-3-methylisothiazol-5-yl)-2-[2-(2,2-dimethylpropyl)benzoxazol-5-yl]-2-fluoropropionamide]: the “mortality (score) Db” value in data set [5] was 9 (9 indicates 80-100% mortality). Further, the mortality at 500 ppm in data set [2] lay in the range of 80 to 100%. Further, in data set [6], the “mortality (score) Dm” value was 5 (5 indicates 40-79% mortality). The “mortality (score) Hv” value in [7] is 9 (9 indicates 80-100% mortality).
With `CC(=O)OCC(C(=O)Nc1snc(C)c1Cl)c1ccc2oc(CC(C)(C)C)nc2c1` (centres unmarked) [Table 28 Compound 7], in [10], the “PLASVI Prot, PRCO (Percentage Reduction from Control)” value came out at 97. Further, in data set [5], the “mortality (score) Db” value is on record as 0 (represents less than 40% mortality). Further, the “mortality (score) Dm” value in [6] is on record as 0 (represents less than 40% mortality). In addition, the “ERYSGT Prot, PRCO (Percentage Reduction from Control)” value in [11] is 98. Moreover, in data set [7], the “mortality (score) Hv” value is on record as 9 (9 indicates 80-100% mortality). Moreover, in data set [12], the “mortality (score) Mp” value is on record as 5 (5 indicates 40-79% mortality).
`CCOC(=O)CNN=C(C(=O)Nc1snc(C)c1Cl)c1ccc2oc(CC(C)(C)C)nc2c1` [Table 30 Compound 7]: in [11], the “ERYSGT Prot, PRCO (Percentage Reduction from Control)” value is listed as 100. Moreover, the “mortality (score) Mp” value in [12] is 9 (9 indicates 80-100% mortality).
In the case of `CCc1nsc(NC(=O)C(C)c2ccc3sc(CC(C)C)nc3c2)c1Cl` (centres unmarked) [Table 39 Compound 86, N-(4-chloro-3-ethylisothiazol-5-yl)-2-[2-(2-methylpropyl)benzothiazol-5-yl]propionamide], in [5], the “mortality (score) Db” value is listed as 9 (9 indicates 80-100% mortality). In addition, the mortality at 500 ppm in [2] was in the range of 40 to 79%. Also, the “mortality (score) Dm” value in [6] is recorded as 0 (represents less than 40% mortality). The “mortality (score) Hv” value in data set [7] is on record as 9 (9 indicates 80-100% mortality). In data set [8], the “mortality (score) Px” value is given as 9 (9 indicates 80-100% mortality).
`CCOCN(C(=O)/C=C/c1ccc2oc(CC(C)(C)C)nc2c1)c1snc(C)c1Cl` [Table 81 Compound 77]: in [5], the “mortality (score) Db” value was 9 (9 indicates 80-100% mortality). Also, the “mortality (score) Dm” value in [6] was 0 (represents less than 40% mortality). In data set [7], the “mortality (score) Hv” value is on record as 0 (represents less than 40% mortality). The “mortality (score) Tu” value in data set [13] is 0 (represents less than 40% mortality). For the same molecule, the “mortality (score) Mp” value in [12] is given as 0 (represents less than 40% mortality). Further, in [8], the “mortality (score) Px” value is listed as 0 (represents less than 40% mortality).
